Measurements taken from ChEMBL document CHEMBL1148870, “Novel inhibitors of VEGF receptors-1 and -2 based on azole-5-carboxamide templates” (Bioorg Med Chem Lett, 2007).

Legend:
Homo sapiens [1] = organism: Homo sapiens; assay: Inhibition of bcr-Abl at 10 uM; set-up: scale not given: the % may be the effect or the level left
[2] = biological target: Fibroblast growth factor receptor 1 (Homo sapiens) (UniProt P11362); assay: Inhibition of FGFR1 at 10 uM; set-up: scale not given: the % may be the effect or the level left
Homo sapiens [3] = organism: Homo sapiens; assay: Inhibition of PKA at 10 uM; set-up: scale not given: the % may be the effect or the level left
Homo sapiens [4] = organism: Homo sapiens; assay: Inhibition of Cdk1 at 10 uM; set-up: scale not given: the % may be the effect or the level left
[5] = biological target: RAC-alpha serine/threonine-protein kinase (Homo sapiens) (UniProt P31749); assay: Inhibition of PKB/Akt at 10 uM; set-up: scale not given: the % may be the effect or the level left
[6] = biological target: T1, Vascular endothelial growth factor receptor 2 (Homo sapiens, UniProt P35968); assay: Inhibition of VEGFR2 assessed as inhibition of phosphorylation in presence of 2 uM ATP by HTRF assay; type: functional
[7] = biological target: Hepatocyte growth factor receptor (Homo sapiens) (UniProt P08581); assay: Inhibition of cMet at 10 uM; set-up: scale not given: the % may be the effect or the level left
[8] = biological target: Receptor tyrosine-protein kinase erbB-2 (Homo sapiens) (UniProt P04626); assay: Inhibition of ErbB2/Her2 at 10 uM; set-up: scale not given: the % may be the effect or the level left
[9] = biological target: Glycogen synthase kinase-3 beta (Homo sapiens) (UniProt P49841); assay: Inhibition of GSK3-beta at 10 uM; set-up: scale not given: the % may be the effect or the level left
[10] = biological target: Insulin-like growth factor 1 receptor (Homo sapiens) (UniProt P08069); assay: Inhibition of IGF1R at 10 uM; set-up: scale not given: the % may be the effect or the level left
[11] = biological target: Vascular endothelial growth factor receptor 1 (Homo sapiens, UniProt P17948); assay: Inhibition of VEGFR1 assessed as inhibition of phosphorylation in presence of 2 uM ATP by HTRF assay; type: functional
Homo sapiens [12] = organism: Homo sapiens; assay: Inhibition of InR at 10 uM; set-up: scale not given: the % may be the effect or the level left
[13] = biological target: RAF proto-oncogene serine/threonine-protein kinase (Homo sapiens) (UniProt P04049); assay: Inhibition of Raf1 at 10 uM; set-up: scale not given: the % may be the effect or the level left
[14] = biological target: T1, Vascular endothelial growth factor receptor 2; assay: Inhibition of VEGFR2 assessed as inhibition of phosphorylation in human 293 cells by cell-based ELISA; type: functional, HEK293
[15] = biological target: Receptor-type tyrosine-protein kinase FLT3 (Homo sapiens) (UniProt P36888); assay: Inhibition of Flt3 at 10 uM; set-up: scale not given: the % may be the effect or the level left
[16] = biological target: Vascular endothelial growth factor receptor 3 (Homo sapiens) (UniProt P35916); assay: Inhibition of Flt4 at 10 uM; set-up: scale not given: the % may be the effect or the level left
[17] = biological target: Cyclin-dependent kinase 2 (Homo sapiens) (UniProt P24941); assay: Inhibition of Cdk2 at 10 uM; set-up: scale not given: the % may be the effect or the level left
[18] = biological target: Epidermal growth factor receptor (Homo sapiens) (UniProt P00533); assay: Inhibition of ErbB1 at 10 uM; set-up: scale not given: the % may be the effect or the level left

T1 sequence (P35968 whole entry): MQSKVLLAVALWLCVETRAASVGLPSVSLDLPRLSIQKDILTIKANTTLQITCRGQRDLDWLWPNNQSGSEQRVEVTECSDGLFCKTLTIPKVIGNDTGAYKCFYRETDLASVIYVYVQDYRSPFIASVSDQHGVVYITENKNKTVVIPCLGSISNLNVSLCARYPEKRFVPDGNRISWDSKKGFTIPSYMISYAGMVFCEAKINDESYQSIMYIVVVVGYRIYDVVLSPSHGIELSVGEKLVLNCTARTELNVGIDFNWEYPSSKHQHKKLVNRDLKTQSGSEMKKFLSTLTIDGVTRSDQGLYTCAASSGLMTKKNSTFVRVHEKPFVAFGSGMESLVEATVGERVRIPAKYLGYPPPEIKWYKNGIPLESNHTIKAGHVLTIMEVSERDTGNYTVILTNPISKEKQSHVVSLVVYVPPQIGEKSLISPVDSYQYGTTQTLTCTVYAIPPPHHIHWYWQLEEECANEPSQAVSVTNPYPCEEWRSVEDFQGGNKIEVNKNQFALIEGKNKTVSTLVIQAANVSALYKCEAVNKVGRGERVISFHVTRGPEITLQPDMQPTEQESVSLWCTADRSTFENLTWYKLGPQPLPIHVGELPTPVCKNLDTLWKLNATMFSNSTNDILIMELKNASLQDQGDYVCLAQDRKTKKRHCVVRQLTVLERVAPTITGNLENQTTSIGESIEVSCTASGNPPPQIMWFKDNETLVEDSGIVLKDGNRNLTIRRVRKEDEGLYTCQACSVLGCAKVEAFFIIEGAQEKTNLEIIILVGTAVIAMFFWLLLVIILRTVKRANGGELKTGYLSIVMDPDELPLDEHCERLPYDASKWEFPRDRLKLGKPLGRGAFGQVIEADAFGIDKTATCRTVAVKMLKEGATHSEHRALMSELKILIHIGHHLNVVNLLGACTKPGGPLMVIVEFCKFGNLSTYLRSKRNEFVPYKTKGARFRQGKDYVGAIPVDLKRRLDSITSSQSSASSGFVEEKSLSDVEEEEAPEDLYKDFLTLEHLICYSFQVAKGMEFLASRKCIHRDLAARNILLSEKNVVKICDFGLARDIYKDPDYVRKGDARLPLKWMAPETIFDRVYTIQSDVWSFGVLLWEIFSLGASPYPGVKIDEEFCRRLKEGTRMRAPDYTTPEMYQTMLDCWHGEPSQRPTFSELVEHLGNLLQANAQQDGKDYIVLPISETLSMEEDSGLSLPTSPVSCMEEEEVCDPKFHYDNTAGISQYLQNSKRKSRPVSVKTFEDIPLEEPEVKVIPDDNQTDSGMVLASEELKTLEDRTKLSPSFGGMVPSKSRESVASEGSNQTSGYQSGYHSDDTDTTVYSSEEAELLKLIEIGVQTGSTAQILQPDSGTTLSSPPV
Chain of Fibroblast growth factor receptor 1 (Homo sapiens) (P11362 22-822 limits assumed): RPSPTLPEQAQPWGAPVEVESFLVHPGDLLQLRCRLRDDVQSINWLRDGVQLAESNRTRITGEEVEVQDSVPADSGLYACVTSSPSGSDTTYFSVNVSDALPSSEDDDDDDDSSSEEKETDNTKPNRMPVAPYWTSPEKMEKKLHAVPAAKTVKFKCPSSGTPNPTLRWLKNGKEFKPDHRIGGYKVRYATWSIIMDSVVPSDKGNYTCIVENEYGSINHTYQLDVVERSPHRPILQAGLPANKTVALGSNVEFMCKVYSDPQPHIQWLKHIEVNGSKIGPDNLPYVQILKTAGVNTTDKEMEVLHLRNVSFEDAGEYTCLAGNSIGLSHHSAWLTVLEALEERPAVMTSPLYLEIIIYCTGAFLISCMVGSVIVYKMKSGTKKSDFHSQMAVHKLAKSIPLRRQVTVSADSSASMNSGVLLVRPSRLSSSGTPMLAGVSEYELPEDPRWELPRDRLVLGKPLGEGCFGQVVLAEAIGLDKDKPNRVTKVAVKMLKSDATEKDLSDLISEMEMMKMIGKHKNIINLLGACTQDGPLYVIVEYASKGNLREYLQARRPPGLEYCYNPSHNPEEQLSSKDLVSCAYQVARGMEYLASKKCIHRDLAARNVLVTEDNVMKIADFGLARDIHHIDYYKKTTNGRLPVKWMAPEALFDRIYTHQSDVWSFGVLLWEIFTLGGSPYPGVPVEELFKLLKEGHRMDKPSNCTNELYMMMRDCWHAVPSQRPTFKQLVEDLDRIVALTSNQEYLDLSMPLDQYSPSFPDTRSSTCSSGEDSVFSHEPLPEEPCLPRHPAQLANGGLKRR
Chain of Hepatocyte growth factor receptor (Homo sapiens) (P08581 whole entry): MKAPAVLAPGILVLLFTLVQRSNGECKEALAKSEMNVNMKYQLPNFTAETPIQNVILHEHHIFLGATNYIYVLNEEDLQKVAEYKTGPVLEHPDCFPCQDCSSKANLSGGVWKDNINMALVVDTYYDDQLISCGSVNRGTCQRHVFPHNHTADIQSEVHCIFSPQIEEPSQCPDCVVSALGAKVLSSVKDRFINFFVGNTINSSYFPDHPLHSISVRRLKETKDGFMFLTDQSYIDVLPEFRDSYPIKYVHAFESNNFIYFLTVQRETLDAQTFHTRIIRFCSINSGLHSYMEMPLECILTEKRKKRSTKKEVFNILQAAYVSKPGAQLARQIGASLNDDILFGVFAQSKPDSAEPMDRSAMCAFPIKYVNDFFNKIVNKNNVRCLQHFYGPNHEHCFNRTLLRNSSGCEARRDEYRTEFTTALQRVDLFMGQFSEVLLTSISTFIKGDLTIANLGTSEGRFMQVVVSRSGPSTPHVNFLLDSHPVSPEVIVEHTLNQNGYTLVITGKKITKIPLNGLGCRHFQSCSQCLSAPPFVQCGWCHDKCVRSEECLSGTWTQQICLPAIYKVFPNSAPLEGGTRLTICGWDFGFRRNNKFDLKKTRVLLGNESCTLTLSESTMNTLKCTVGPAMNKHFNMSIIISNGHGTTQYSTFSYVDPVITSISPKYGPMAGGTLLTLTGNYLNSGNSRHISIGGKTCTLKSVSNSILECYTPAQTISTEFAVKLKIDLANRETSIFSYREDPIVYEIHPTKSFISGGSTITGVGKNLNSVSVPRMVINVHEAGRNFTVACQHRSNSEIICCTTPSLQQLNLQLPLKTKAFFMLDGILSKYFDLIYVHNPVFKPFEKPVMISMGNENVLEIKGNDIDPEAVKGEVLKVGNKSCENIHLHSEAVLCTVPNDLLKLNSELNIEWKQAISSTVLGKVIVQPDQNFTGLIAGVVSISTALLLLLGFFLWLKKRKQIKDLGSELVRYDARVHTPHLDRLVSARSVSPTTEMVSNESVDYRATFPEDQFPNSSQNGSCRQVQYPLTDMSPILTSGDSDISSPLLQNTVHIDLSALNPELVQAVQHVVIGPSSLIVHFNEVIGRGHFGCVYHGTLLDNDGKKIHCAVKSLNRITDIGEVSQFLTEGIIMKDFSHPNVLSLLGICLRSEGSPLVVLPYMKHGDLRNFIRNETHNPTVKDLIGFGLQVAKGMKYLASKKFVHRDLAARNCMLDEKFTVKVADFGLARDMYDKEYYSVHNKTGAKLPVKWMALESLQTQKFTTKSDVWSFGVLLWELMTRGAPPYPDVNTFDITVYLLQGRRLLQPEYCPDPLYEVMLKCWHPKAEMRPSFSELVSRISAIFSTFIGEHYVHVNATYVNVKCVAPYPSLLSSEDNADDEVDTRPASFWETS
Chain of Vascular endothelial growth factor receptor 1 (P17948 whole entry): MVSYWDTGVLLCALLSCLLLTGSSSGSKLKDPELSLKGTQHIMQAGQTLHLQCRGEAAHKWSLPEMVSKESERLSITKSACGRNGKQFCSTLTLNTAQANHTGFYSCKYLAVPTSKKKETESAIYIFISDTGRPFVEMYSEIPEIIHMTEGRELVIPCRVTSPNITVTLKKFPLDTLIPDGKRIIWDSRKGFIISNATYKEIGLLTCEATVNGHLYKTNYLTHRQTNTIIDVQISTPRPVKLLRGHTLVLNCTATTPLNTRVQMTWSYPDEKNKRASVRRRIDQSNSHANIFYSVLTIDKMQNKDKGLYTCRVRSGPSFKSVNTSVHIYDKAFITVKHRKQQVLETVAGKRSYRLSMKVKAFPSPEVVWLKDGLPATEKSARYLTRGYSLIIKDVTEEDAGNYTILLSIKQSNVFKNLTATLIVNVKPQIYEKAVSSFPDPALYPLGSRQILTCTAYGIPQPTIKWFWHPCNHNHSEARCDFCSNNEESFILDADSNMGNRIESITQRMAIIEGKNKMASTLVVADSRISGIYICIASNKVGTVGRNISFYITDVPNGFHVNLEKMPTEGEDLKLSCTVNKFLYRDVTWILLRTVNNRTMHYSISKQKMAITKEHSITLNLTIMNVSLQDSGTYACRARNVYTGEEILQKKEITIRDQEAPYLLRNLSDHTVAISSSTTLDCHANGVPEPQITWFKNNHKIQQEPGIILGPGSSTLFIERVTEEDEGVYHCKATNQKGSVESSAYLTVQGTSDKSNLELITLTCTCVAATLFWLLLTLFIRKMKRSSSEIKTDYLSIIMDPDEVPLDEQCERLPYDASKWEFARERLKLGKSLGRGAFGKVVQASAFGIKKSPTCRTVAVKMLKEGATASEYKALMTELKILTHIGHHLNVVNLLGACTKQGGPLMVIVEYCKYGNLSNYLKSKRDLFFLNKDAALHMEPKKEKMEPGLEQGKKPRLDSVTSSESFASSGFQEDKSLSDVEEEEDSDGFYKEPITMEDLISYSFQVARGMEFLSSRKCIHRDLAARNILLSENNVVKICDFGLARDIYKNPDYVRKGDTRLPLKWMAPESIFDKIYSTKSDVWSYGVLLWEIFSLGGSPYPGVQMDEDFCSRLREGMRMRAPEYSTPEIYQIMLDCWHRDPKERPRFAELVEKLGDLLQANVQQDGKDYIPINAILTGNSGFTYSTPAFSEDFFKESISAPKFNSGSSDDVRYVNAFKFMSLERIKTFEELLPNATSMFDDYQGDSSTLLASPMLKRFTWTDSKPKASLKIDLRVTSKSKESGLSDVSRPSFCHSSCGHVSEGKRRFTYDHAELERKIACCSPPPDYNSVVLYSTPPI

Row | Structure (SMILES) | Activity (Homo sapiens [1]) [%] | Activity [2] [%] | Activity (Homo sapiens [3]) [%] | Activity (Homo sapiens [4]) [%] | Activity [5] [%] | IC50 [6] [µM] | Activity [7] [%] | Activity [8] [%] | Activity [9] [%] | Activity [10] [%] | IC50 [11] [µM] | Activity (Homo sapiens [12]) [%] | Activity [13] [%] | IC50 [14] [µM] | Activity [15] [%] | Activity [16] [%] | Activity [17] [%] | Activity [18] [%]
1 | O=C(Nc1ccc(C(F)(F)F)c(Cl)c1)c1nnnn1CCc1ccncc1 | > 30 | > 30 | > 30 | > 30 | > 30 | > 10 | > 30 | > 30 | > 30 | > 30 | > 10 | > 30 | > 30 | > 10 | > 30 | > 30 | > 30 | < 30
2 | O=C(Nc1ccc(Cl)cc1)c1ccnn1CCc1ccccn1 | > 30 | > 30 | > 30 | > 30 | > 30 | > 10 | > 30 | > 30 | > 30 | > 30 | > 10 | > 30 | > 30 | > 10 | > 30 | > 30 | > 30 | < 30
3 | O=C(Nc1ccc(Cl)c(Cl)c1)c1ccnn1CCc1ccncc1 | > 30 | > 30 | > 30 | > 30 | > 30 | 0.26 | > 30 | > 30 | > 30 | > 30 | 0.86 | > 30 | > 30 | 0.12 | > 30 | > 30 | > 30 | < 30
4 | CC(C)(C)c1ccc(NC(=O)c2nnnn2CCc2ccncc2)cc1 | > 30 | > 30 | > 30 | > 30 | > 30 | > 10 | > 30 | > 30 | > 30 | > 30 | > 10 | > 30 | > 30 | > 10 | > 30 | > 30 | > 30 | < 30
5 | O=C(Nc1ccc(Cl)cc1)c1ccnn1CCc1c[nH]cn1 | > 30 | > 30 | > 30 | > 30 | > 30 | > 10 | > 30 | > 30 | > 30 | > 30 | > 10 | > 30 | > 30 | > 10 | > 30 | > 30 | > 30 | < 30
6 | O=C(Nc1ccc(Cl)cc1)c1ccnn1CCc1ccc(F)c(F)c1 | > 30 | > 30 | > 30 | > 30 | > 30 | > 10 | > 30 | > 30 | > 30 | > 30 | > 10 | > 30 | > 30 | > 10 | > 30 | > 30 | > 30 | < 30
7 | O=C(Nc1ccc(OC(F)(F)F)cc1)c1nccn1CCc1ccncc1 | > 30 | > 30 | > 30 | > 30 | > 30 | 0.79 | > 30 | > 30 | > 30 | > 30 | 4.27 | > 30 | > 30 | 1.05 | > 30 | > 30 | > 30 | < 30
8 | O=C(Nc1ccc(Cl)cc1)c1nccn1CCc1ccncc1 | > 30 | > 30 | > 30 | > 30 | > 30 | 0.38 | > 30 | > 30 | > 30 | > 30 | 0.94 | > 30 | > 30 | 1.32 | > 30 | > 30 | > 30 | < 30
